Drawing on patent publication US9957274B2, “Indane inhibitors of EED and methods of their use” (AbbVie Inc., priority 2016, dated 2018), this text covers IC50 for eight compounds.

For one assay, the target named is EED (Homo sapiens, UniProt O75530). As to the kind of experiment: EED TR-FRET Binding Assay (modified LanthaScreen competition assay). Summed up: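 Competition binding in a modified LanthaScreen format, in 20 mM Tris-HCl pH 7.5, 200 mM NaCl, 0.01% Tween-20, 10 uM DTT and 0.05% BSA. Reactions ran 1 hour at 25° C before TR-FRET detection.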
The subject of assay [1] is H3K27me3 in OCILY19 cells. Briefly: H3K27me3 AlphaLISA assay in OCILY19 cells. Type of assay: cell-based. The settings on record: Homo sapiens, OCI-LY19, 144 h, 6 days with compound, read-out: OCILY-19 IC50. The method, then: 5,000 cells were plated into each well of 96-well Corning CellBing cell culture plates and incubated overnight at 37° C. in a humidified CO2 incubator. […] The cell culture plates were then incubated for 6 more days. H3K27me3 AlphaLISA assay was performed on the cell culture samples by using AlphaLISAR® H3K27me3 Cellular Detection Kit (PerkinElmer) and 96-well white half-area plates (PerkinElmer).

The next assay deals with Pfeiffer cells. As to the kind of experiment: CTG cell viability assay (CellTiter-Glo). Format: cell-based. The conditions noted are these: Homo sapiens, 240 h; Pfeiffer cells, 10 days with compound, CellTiter-Glo; read-out: Cell Proliferation IC50. The protocol: 1,000 cells were plated into each well of 96-well Corning CellBing cell culture plates and incubated overnight at 37° C. in a humidified CO2 incubator. […] The cell culture plates were then incubated for 10 more days. CTG cell viability assay was performed on the cell culture samples by using CellTiter-Glo® Luminescent Cell Viability Assay Kit (Promega).
For orientation: Cellular ATP, detected with luciferase, serves as a proxy for viable cell number.

Sequence of EED (O75530 whole entry): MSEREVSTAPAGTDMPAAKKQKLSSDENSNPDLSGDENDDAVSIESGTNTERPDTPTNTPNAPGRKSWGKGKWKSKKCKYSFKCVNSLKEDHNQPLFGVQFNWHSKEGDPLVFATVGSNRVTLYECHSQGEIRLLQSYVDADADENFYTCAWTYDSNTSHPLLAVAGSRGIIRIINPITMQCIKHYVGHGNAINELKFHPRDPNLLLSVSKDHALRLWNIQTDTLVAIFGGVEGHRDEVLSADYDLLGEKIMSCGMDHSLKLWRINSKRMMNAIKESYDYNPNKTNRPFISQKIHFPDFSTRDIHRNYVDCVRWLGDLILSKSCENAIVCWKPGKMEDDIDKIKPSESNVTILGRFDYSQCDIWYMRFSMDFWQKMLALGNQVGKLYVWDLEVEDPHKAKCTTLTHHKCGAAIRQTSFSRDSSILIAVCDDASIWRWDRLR

For the compound `CN(C)C(=O)C(=O)N1CCN(c2ccc([C@@H]3CN(C4CCc5cccc(F)c54)C[C@H]3N(C)C)cc2)CC1` (mixture of isomers) [Example 59, rac-2-(4-{4-[(3R,4S)-4-(dimethylamino)-1-(7-fluoro-2,3-dihydro-1H-inden-1-yl)pyrrolidin-3-yl]phenyl}piperazin-1-yl)-N,N-dimethyl-2-oxoacetamide], the IC50 on EED amounted to 1.07 nM; in assay [1], 163 nM; in the assay on Pfeiffer cells, 127 nM.
As for `CN1CCN(c2ccc([C@H]3CN(C4CCc5cccc(F)c54)C[C@@H]3N(C)C)cc2)CC1` (mixture of isomers) [Example 61, rac-(3R,4S)-1-(7-fluoro-2,3-dihydro-1H-inden-1-yl)-N,N-dimethyl-4-[4-(4-methylpiperazin-1-yl)phenyl]pyrrolidin-3-amine], the IC50 is 1.14 nM on EED, 804 nM in assay [1] and 204 nM in the assay on Pfeiffer cells.
For `CCS(=O)(=O)N1CCN(c2ccc([C@H]3CN(C4CCc5cccc(F)c54)C[C@@H]3N(C)C)cc2C)CC1` (mixture of isomers) [Example 62, rac-(3R,4S)-4-{4-[4-(ethanesulfonyl)piperazin-1-yl]-3-methylphenyl}-1-(7-fluoro-2,3-dihydro-1H-inden-1-yl)-N,N-dimethylpyrrolidin-3-amine], in that order: 1.35 nM, 282 nM and 429 nM.
Consider `CN(C)[C@H]1CN(C2CCc3cccc(F)c32)C[C@@H]1c1ccc(N2CCN(C3CC3)CC2)cc1` (mixture of isomers) [Example 64, rac-(3R,4S)-4-[4-(4-cyclopropylpiperazin-1-yl)phenyl]-1-(7-fluoro-2,3-dihydro-1H-inden-1-yl)-N,N-dimethylpyrrolidin-3-amine], for which the IC50 was determined as 0.835 nM on EED, 334 nM in assay [1] and 166 nM in the assay on Pfeiffer cells.
`CN(C)[C@@H]1CN(C2CCc3cccc(F)c32)C[C@H]1c1ccc(N2CCN(S(=O)(=O)c3cn(C)cn3)CC2)cc1` (mixture of isomers) [Example 73, rac-(3S,4R)-1-(7-fluoro-2,3-dihydro-1H-inden-1-yl)-N,N-dimethyl-4-{4-[4-(1-methyl-1H-imidazole-4-sulfonyl)piperazin-1-yl]phenyl}pyrrolidin-3-amine]: the IC50 came to 0.825 nM at EED, 113 nM in assay [1] and 99.5 nM in the assay on Pfeiffer cells.
The like results for `CN1CCN(C(=O)c2cccc3c([C@H]4CN(C5CCc6cccc(F)c65)C[C@@H]4N(C)C)cn(C)c23)CC1=O` (mixture of isomers) [Example 125, rac-4-{3-[(3S,4R)-4-(dimethylamino)-1-(7-fluoro-2,3-dihydro-1H-inden-1-yl)pyrrolidin-3-yl]-1-methyl-1H-indole-7-carbonyl}-1-methylpiperazin-2-one] were, in that order, 1.07 nM, 203 nM and 268 nM.
As for `CN(C)[C@H]1CN(C2CCc3cccc(F)c32)C[C@@H]1c1cn(C)c2c(C(=O)N3CCN(S(C)(=O)=O)CC3)cccc12` (mixture of isomers) [Example 126, rac-{3-[(3S,4R)-4-(dimethylamino)-1-(7-fluoro-2,3-dihydro-1H-inden-1-yl)pyrrolidin-3-yl]-1-methyl-1H-indol-7-yl}[4-(methanesulfonyl)piperazin-1-yl]methanone], the IC50 on EED came to 2.14 nM; in assay [1] it was 220 nM; in the assay with Pfeiffer cells it was 329 nM.
As for `CC(=O)N1CCN(C(=O)c2cccc3c([C@H]4CN(C5CCc6cccc(F)c65)C[C@@H]4N(C)C)cn(C)c23)CC1` (mixture of isomers) [Example 128, rac-1-(4-{3-[(3S,4R)-4-(dimethylamino)-1-(7-fluoro-2,3-dihydro-1H-inden-1-yl)pyrrolidin-3-yl]-1-methyl-1H-indole-7-carbonyl}piperazin-1-yl)ethan-1-one], the IC50 on EED is 1.03 nM; in assay [1], 241 nM; in the assay on Pfeiffer cells, 194 nM.
